2 molecules from US20250304644A1, “PEPTIDES TRIPLE AGONISTS OF GIP, GLP-1 AND GLP-2” (BAINAN BIOTECH APS, priority 2021, published 2025) can be followed below.

*1 amine or outer side, *2 acyl side, *3 side chain or, on linkers, in order; H or OH if unused. Where a SMILES comes first, the peptide text is derived from it. Side-chain parts run from the residue outwards. The star is where a group is joined. C18 diacid = O=C(O)CCCCCCCCCCCCCCCCC(=O)*; γGlu = O=C(O)[C@H](CCC(=O)[*:2])N[*:1]; AEEA = NCCOCCOCC(=O)O

Usually Emax stands for the size of the effect at its maximum, as opposed to the concentration needed.

In one assay the target is T1, human GIPR (Homo sapiens, UniProt P48546).
T1 construct: host or cells: COS-7
T1 sequence (P48546 22-466): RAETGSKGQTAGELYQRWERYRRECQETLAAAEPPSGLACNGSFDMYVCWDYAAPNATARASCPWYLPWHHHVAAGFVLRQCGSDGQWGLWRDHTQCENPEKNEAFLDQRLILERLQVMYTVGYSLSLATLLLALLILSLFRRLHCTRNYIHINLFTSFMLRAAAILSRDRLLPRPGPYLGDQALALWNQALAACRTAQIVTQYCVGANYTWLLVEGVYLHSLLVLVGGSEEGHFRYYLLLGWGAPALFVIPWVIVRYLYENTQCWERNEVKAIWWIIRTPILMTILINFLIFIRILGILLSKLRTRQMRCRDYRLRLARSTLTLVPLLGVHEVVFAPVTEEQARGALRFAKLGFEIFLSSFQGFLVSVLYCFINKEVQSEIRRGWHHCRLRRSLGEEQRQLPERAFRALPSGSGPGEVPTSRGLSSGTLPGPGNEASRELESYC
Briefly: cAMP assay (HitHunter) in transiently transfected COS-7 cells expressing human GIPR. It counts as cell-based. The note with it: COS-7; normalized to highest concentration of the endogenous ligand; read-out: Efficacy GIPR (Emax). In general terms: Changes in cAMP serve as a functional read-out for many G protein-coupled receptors.

The target of the next assay is T2, human GLP-2R (Homo sapiens, UniProt O95838).
T2 construct: host or cells: COS-7
T2 sequence (O95838 1-553): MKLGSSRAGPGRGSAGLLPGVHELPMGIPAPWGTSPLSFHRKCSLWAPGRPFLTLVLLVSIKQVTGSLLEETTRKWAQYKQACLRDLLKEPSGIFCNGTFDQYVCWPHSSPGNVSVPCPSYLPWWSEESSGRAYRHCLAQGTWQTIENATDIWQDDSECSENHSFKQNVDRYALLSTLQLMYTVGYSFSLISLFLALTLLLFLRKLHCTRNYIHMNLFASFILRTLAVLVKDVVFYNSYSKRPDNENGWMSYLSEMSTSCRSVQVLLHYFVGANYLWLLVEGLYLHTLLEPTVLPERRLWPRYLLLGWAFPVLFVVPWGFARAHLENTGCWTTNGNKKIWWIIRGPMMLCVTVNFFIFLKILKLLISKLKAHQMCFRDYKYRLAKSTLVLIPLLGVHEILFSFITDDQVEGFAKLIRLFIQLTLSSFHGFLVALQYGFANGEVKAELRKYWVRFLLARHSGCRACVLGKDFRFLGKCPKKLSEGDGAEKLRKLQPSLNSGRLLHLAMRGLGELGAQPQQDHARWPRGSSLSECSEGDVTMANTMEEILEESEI
The assay is described as follows: cAMP assay (HitHunter) in transiently transfected COS-7 cells expressing human GLP-2R. Type of assay: cell-based. To be noted: COS-7; normalized to highest concentration of the endogenous ligand; read-out: Efficacy GLP-2R (Emax).

In another assay the target is T3, human GLP-1R (Homo sapiens, UniProt P43220).
T3 construct: host or cells: COS-7
The assay is described as follows: cAMP assay (HitHunter) in transiently transfected COS-7 cells expressing human GLP-1R. Type of assay: cell-based. To be noted: COS-7; normalized to highest concentration of the endogenous ligand; read-out: Efficacy GLP-1R (Emax).

For a further assay, the target named is T4, human SNAP-tagged GIPR (Homo sapiens, UniProt P48546).
T4 construct: host or cells: HEK293A
T4 sequence (P48546 22-466): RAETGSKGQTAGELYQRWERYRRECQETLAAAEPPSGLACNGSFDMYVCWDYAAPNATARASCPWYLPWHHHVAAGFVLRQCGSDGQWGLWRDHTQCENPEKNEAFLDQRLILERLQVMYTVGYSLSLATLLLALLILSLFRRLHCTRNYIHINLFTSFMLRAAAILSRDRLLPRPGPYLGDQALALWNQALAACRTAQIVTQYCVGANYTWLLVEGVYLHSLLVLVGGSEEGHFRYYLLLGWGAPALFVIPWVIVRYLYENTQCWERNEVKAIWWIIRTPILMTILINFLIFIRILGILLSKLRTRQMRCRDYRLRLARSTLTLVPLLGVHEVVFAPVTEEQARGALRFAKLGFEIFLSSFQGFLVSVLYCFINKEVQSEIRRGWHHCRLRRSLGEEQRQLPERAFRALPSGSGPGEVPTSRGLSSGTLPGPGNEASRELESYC
Briefly: Receptor internalization assay, HEK293A cells expressing human SNAP-tagged GIPR. Type of assay: cell-based. The note with it: AUC of sigmoid curves up to 1 μM; 60 minutes at 37° C.

The target in a further assay is T5, human SNAP-tagged GLP-1R (Homo sapiens, UniProt P43220).
T5 construct: expressed in transfected cells; host or cells: HEK293A
Briefly: Receptor internalization assay, HEK293A cells expressing human SNAP-tagged GLP-1R. Type of assay: cell-based. The note with it: AUC of sigmoid curves up to 1 μM; 60 minutes at 37° C.

The next assay addresses T6, human SNP-tagged GLP-2R (Homo sapiens, UniProt O95838).
T6 construct: expressed in transfected cells; host or cells: HEK293A
T6 sequence (O95838 1-553): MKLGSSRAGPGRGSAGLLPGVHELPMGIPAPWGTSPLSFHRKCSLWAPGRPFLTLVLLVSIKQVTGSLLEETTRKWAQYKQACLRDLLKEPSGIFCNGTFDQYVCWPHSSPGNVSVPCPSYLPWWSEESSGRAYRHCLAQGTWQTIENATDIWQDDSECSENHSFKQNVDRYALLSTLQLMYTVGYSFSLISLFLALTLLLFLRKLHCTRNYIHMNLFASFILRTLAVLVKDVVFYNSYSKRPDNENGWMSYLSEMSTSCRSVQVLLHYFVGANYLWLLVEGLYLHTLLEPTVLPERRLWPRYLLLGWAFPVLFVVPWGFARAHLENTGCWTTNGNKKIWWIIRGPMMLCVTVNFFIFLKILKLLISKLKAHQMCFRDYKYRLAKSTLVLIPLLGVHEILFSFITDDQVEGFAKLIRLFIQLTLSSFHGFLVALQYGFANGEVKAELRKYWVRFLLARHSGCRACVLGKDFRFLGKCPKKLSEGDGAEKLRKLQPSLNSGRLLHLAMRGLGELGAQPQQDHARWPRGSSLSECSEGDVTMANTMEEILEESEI
The assay is described as follows: Receptor internalization assay, HEK293A cells expressing human SNAP-tagged GLP-2R. Type of assay: cell-based. The note with it: AUC of sigmoid curves up to 1 μM; 60 minutes at 37° C.

The target in another assay is T7, human SNAP-tagged GLP-2R (human, UniProt O95838 1-553, SNAP tag labeled with Tag-Lite SNAP-Lumi4-Tb).
T7 sequence (looked up): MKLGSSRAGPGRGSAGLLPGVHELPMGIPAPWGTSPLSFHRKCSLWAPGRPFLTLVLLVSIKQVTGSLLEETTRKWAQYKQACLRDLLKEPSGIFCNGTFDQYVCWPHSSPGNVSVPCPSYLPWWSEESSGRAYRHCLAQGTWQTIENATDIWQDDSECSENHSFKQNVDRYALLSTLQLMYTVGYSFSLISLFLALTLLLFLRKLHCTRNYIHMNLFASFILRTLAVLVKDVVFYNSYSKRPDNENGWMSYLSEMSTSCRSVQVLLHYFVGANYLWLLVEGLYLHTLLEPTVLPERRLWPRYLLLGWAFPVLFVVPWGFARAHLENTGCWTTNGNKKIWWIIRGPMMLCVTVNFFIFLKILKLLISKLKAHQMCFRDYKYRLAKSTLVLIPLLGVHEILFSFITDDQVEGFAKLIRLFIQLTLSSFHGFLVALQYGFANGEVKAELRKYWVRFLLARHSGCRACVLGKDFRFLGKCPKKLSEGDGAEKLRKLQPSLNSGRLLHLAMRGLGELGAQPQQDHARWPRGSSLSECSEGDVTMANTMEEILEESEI
The assay is described as follows: cell-based or functional assay.

T5 sequence (P43220 24-463): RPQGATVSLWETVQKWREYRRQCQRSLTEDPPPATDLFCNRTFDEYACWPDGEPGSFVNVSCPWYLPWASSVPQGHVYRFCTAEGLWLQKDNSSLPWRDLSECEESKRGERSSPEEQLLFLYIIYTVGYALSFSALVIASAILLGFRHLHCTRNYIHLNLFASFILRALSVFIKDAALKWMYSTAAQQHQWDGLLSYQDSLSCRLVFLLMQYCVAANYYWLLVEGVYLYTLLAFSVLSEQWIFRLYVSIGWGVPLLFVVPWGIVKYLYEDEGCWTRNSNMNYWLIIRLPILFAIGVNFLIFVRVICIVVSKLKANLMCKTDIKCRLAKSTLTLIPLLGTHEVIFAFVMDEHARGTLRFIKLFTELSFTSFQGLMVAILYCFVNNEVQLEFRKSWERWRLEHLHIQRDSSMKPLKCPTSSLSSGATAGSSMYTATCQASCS
T3 sequence (P43220 24-463): as above

Turning to `CC[C@H](C)[C@H](NC(=O)[C@H](Cc1ccccc1)NC(=O)[C@H](CC(=O)O)NC(=O)[C@H](CCCNC(=N)N)NC(=O)[C@H](C)NC(=O)[C@H](C)NC(=O)[C@H](CC(C)C)NC(=O)[C@H](CC(N)=O)NC(=O)[C@H](CC(=O)O)NC(=O)[C@H](CC(C)C)NC(=O)[C@@H](NC(=O)[C@@H](NC(=O)[C@H](CO)NC(=O)[C@H](Cc1ccc(O)cc1)NC(=O)[C@H](CC(=O)O)NC(=O)[C@H](CO)NC(=O)[C@@H](NC(=O)[C@H](Cc1ccccc1)NC(=O)[C@@H](NC(=O)CNC(=O)[C@H](CC(=O)O)NC(=O)[C@H](C)NC(=O)[C@@H](N)Cc1c[nH]cn1)[C@@H](C)O)[C@@H](C)CC)[C@@H](C)O)[C@@H](C)CC)C(=O)N[C@@H](CC(N)=O)C(=O)N[C@@H](Cc1c[nH]c2ccccc12)C(=O)N[C@@H](CC(C)C)C(=O)N[C@H](C(=O)N[C@@H](CCC(N)=O)C(=O)N[C@H](C(=O)N[C@@H](CCCCN)C(=O)NCC(=O)N[C@@H](CCCCN)C(=O)N[C@@H](CCCCN)C(=O)N[C@@H](CCCCNC(=O)COCCOCCNC(=O)COCCOCCNC(=O)CC[C@H](NC(=O)CCCCCCCCCCCCCCCCC(=O)O)C(=O)O)C(=O)O)[C@@H](C)O)[C@@H](C)CC` [Compound 34] (H-HADGTFISDYSTILDNLAARDFINWLIQTKGKKK([AEEA-AEEA-γGlu-C18 diacid])-OH; N-terminus assumed), the Emax was 103% on human GIPR, 91% at human GLP-2R and 97% on human GLP-1R. For the same molecule, the “Absolute hGIPR internalization (AUC)” value on human SNAP-tagged GIPR came to 14.7. In addition, the “Absolute hGLP-1R internalization (AUC)” value at human SNAP-tagged GLP-1R was found to be 6.0. Besides, at human SNP-tagged GLP-2R, the “Absolute hGLP-2R internalization (AUC)” value is listed as 8.0.

B1: hGLP-2 (ligand)
peptide: HADGSFSDEMNTILDNLAARDFINWLIQTKITD
In the case of B1, in the assay with human SNAP-tagged GLP-2R, the “Absolute hGLP-2R internalization (AUC)” value stood at 48.6 AUC.
